Key:
[1] = Inhibition of [3H]D-cis-diltiazem binding to calcium channel of isolated guinea pig skeletal muscle microsomal preparation; format: microsomes, Cavia porcellus, Muscle tissue
Oryctolagus cuniculus = organism: Oryctolagus cuniculus; assay: Inhibition of K+ induced contraction of rabbit aorta; format: functional; settings: read-out: I50

| Compound | Kd [1] | IC50 (Oryctolagus cuniculus) |
| --- | --- | --- |
| COc1ccc([C@@H]2Sc3ccccc3N(CCN(C)C)C(=O)[C@@H]2OC(C)=O)cc1 [DILTIAZEM] | 0.38 µM | 1.8 µM |
| COc1ccc([C@@H]2CC3c4ccccc4C2C[C@]32CCNC2)cc1 (stereo partly specified) | 1.26 µM | 2 µM |
| COc1ccc([C@@H]2CC3c4ccccc4C2C[C@@]32CCNC2)cc1 (stereo partly specified) | 0.33 µM | 0.95 µM |
